The assay has as its system Ba/F3 cell line panel (HER2YF/HER3). Nature of the assay: 48 h proliferation of the Ba/F3 cell line panel (CellTiter-Glo). It counts as cell-based. The note with it: 48 h proliferation curves. The method, then:
FIGS. 3A-3D. Design and execution of a high-throughput screen identifies a novel HER2/HER3 inhibitor. FIG. 3A: 2YF/3wt cells were incubated in the presence or absence of NRG for 48 h and proliferation was assessed by CellTiter-Glo (mean±SD, n=1). […] FIG. 3C: Structure and proliferation curves for hit compound 1 (also referred herein as compound 185) against the Ba/F3 cell line panel (mean±SD, n=3), FIG. 3D: Structure and proliferation curves for compound 2 (also referred to herein as compound 55A) against the panel of Ba/F3 cell lines (mean±SD, n=3).
FIGS. 4A-4F. Compound 2 is a selective Type I inhibitor for HER2. […] FIG. 4B: Thermal stabilization of the HER3 kinase domain by either compound 2 or ATP as determined by Thermofluor (mean±SD, n=3). FIGS. 4C-4D: The crystal structure of either erlotinib (FIG. 4C) or 2 (FIG. 4D) bound to EGFR V924R. The kinase domain in complex with compound 2 has been stabilized in the active confirmation by drug binding, despite the mutation—as evidenced by the ordered extension of the activation loop and the inward positioning of the α-C helix.
FIGS. 5A-5D. […] FIG. 5A: Chemical structure of compound 3 (also referred to herein as compound 178). FIG. 5B: Proliferation curves for compound 3 against the Ba/F3 cell line panel (mean±SD, n=3). […] FIG. 5D: The same assay in FIG. 2A was performed with compound 3 in SK-BR-3 cells.
FIG. 10. […]
(In general: In ATP-based viability assays light output follows the ATP content of the culture.)

As to `CC(=O)Nc1nc(C)c(-c2ccc(Cl)c(S(=O)(=O)NCCO)c2)s1` [PIK-93], the “level of pathway inhibition distinguished by the Ba/F3 panel” value is on record as “hit downstream”.

The values above are taken from patent publication US20190119284A1, “ErbB Inhibitors and Uses Thereof” (The Regents of the University of California, priority 2016, published 2019).
